IC50 data for 23 molecules are collected here from patent publication US10703756B2, “Pyrrolo[2,3-D]pyrimidinyl, pyrrolo[2,3-B]pyrazinyl, pyrrolo[2,3-B]pyridinyl acrylamides and epoxides thereof” (Pfizer Inc., priority 2015, dated 2020).

For orientation: IC50 means the concentration that inhibits the measured activity by half.

In assay [1] the target is T1, JAK3 enzyme (Homo sapiens, UniProt P52333).
T1 sequence (P52333 1-1124): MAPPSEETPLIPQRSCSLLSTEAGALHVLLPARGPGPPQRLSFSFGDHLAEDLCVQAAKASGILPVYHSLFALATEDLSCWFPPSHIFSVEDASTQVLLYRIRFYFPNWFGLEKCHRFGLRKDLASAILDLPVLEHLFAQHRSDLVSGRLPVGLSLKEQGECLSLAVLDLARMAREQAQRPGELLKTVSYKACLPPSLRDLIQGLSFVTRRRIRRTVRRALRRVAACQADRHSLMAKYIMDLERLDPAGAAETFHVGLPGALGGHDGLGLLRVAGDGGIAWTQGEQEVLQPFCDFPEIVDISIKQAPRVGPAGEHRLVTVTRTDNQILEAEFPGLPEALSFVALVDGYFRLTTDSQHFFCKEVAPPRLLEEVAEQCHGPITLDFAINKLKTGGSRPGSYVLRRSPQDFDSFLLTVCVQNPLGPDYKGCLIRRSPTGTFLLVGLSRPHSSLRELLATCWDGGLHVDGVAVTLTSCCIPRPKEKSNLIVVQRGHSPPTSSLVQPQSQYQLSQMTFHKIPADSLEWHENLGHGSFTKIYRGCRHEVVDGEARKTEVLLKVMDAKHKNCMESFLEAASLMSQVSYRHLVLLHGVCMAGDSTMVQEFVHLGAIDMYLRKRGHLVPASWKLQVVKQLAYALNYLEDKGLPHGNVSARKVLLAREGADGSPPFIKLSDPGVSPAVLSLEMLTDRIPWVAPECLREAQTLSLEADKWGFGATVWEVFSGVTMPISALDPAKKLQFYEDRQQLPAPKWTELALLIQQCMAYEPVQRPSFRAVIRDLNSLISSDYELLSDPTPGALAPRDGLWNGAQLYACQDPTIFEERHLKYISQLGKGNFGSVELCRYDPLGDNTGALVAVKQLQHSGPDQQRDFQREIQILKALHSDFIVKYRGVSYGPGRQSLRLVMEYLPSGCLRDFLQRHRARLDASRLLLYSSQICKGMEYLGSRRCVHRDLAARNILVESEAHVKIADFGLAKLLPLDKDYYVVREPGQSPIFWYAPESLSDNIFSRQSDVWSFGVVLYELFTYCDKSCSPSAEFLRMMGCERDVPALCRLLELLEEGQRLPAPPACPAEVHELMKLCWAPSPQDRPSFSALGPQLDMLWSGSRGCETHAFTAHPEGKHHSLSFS
The experiment in a line: JAK Caliper Enzyme Assay at 1 mM ATP. In kind it is biochemical. The procedure, abridged: (§1)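 Compound tested as 11-point half-log DMSO dilution series (top 600 μM in DMSO, a dilution-plate level). Enzyme level and time set for 20%-30% peptide phosphorylation; phosphorylated and unphosphorylated peptide separated and quantified by Caliper LC3000 mobility shift.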

Assay [2] concerns the target T1, JAK3 enzyme. The experiment in a line: JAK Caliper Enzyme Assay at 4 μM ATP. The class given is biochemical. The procedure, abridged: as §1

SMILES strings stand for the structures.

In the case of `C=CC(=O)N1C[C@H](Nc2cnc3[nH]cc(C(=O)NCC)c3n2)[C@H](C2CC2)C1` [Example 261, 2-{[(3R,4R)-1-acryloyl-4-cyclopropylpyrrolidin-3-yl]amino}-N-ethyl-5H-pyrrolo[2,3-b]pyrazine-7-carboxamide], the IC50 is greater than 10000 nM in assay [1] and 259 nM in assay [2].
`C=CC(=O)N1C[C@H](Nc2cnc3[nH]cc(C(=O)NCC)c3n2)C[C@@H]1COC` [Example 262, 2-{[(3R,5R)-1-acryloyl-5-(methoxymethyl)pyrrolidin-3-yl]amino}-N-ethyl-5H-pyrrolo[2,3-b]pyrazine-7-carboxamide]: the IC50 came to 2180 nM in assay [1] and 11.6 nM in assay [2].
For the molecule `C=CC(=O)N1C[C@@H](CC)[C@@H](Nc2cnc3[nH]cc(C(=O)NCC)c3n2)C1` [Example 263, 2-{[(3R,4R)-1-acryloyl-4-ethylpyrrolidin-3-yl]amino}-N-ethyl-5H-pyrrolo[2,3-b]pyrazine-7-carboxamide], the IC50 in assay [1] is 6460 nM; in assay [2], 52.4 nM.
On to `C=CC(=O)N1C[C@H](C)[C@H](Nc2cnc3[nH]cc(C(=O)NCCOC)c3n2)C1` [Example 264, 2-{[(3S,4S)-1-acryloyl-4-methylpyrrolidin-3-yl]amino}-N-(2-methoxyethyl)-5H-pyrrolo[2,3-b]pyrazine-7-carboxamide], for which the results for the IC50 in assay [1] and in assay [2] were 479 nM and 2.41 nM, respectively.
For `C=CC(=O)N1CCN(c2cnc3[nH]cc(C(=O)NCCCC(F)(F)F)c3n2)CC1(C)C` [Example 272, 2-(4-acryloyl-3,3-dimethylpiperazin-1-yl)-N-(4,4,4-trifluorobutyl)-5H-pyrrolo[2,3-b]pyrazine-7-carboxamide], in that order: 651 nM and 3.82 nM.
`C=CC(=O)N1CCC(Nc2cnc3[nH]cc(C(=O)NC[C@H](C)CC(F)(F)F)c3n2)CC1C` (stereo partly drawn) [Example 280, 2-[(1-acryloyl-2-methylpiperidin-4-yl)amino]-N-[(2R)-4,4,4-trifluoro-2-methylbutyl]-5H-pyrrolo[2,3-b]pyrazine-7-carboxamide]: the concentration for half-maximal inhibition (IC50) worked out at 501 nM in assay [1] and 2.49 nM in assay [2].
Consider `C=CC(=O)N1CCN(c2cnc3[nH]cc(C(=O)NCC(F)(F)F)c3n2)CC1(C)C` [Example 286, 2-(4-acryloyl-3,3-dimethylpiperazin-1-yl)-N-(2,2,2-trifluoroethyl)-5H-pyrrolo[2,3-b]pyrazine-7-carboxamide], for which the IC50 amounted to 1020 nM in assay [1] and 12.4 nM in assay [2].
Taken in the same sequence, the figures for `C=CC(=O)N1CCN(c2cnc3[nH]cc(C(=O)N[C@@H]4C[C@H]4C(F)(F)F)c3n2)CC1` [Example 287, 2-(4-acryloylpiperazin-1-yl)-N-[(1R,2R)-2-(trifluoromethyl)cyclopropyl]-5H-pyrrolo[2,3-b]pyrazine-7-carboxamide] were 499 nM and 2.71 nM.
For `C=CC(=O)N1CCN(c2cnc3[nH]cc(C(=O)N[C@@H]4C[C@H]4C(F)(F)F)c3n2)CC1(C)C` [Example 290, 2-(4-acryloyl-3,3-dimethylpiperazin-1-yl)-N-[(1R,2R)-2-(trifluoromethyl)cyclopropyl]-5H-pyrrolo[2,3-b]pyrazine-7-carboxamide], the IC50 is 2150 nM in assay [1] and 20.8 nM in assay [2].
With `C=CC(=O)N1CCN(c2cnc3[nH]cc(C(=O)NCC4(O)CCC(F)(F)CC4)c3n2)CC1(C)C` [Example 291, 2-(4-acryloyl-3,3-dimethylpiperazin-1-yl)-N-[(4,4-difluoro-1-hydroxycyclohexyl)methyl]-5H-pyrrolo[2,3-b]pyrazine-7-carboxamide], the IC50 in assay [1] is 1490 nM; in assay [2] it was 15.5 nM.
For the molecule `C=CC(=O)N1CCN(c2cnc3[nH]cc(C(=O)N[C@@H]4C[C@H]4C(F)(F)F)c3n2)C[C@@H]1CC(C)C` [Example 303, 2-[(3S)-4-acryloyl-3-(2-methylpropyl)piperazin-1-yl]-N-[(1R,2R)-2-(trifluoromethyl)cyclopropyl]-5H-pyrrolo[2,3-b]pyrazine-7-carboxamide], the concentration for half-maximal inhibition (IC50) in assay [1] was found to be 731 nM; in assay [2], 4.81 nM.
With `C=CC(=O)N1CCN(c2cnc3[nH]cc(C(=O)NC4CC(F)(F)C4)c3n2)CC1(C)C` [Example 325, 2-(4-acryloyl-3,3-dimethylpiperazin-1-yl)-N-(3,3-difluorocyclobutyl)-5H-pyrrolo[2,3-b]pyrazine-7-carboxamide], the concentration for half-maximal inhibition (IC50) in assay [1] was 1260 nM; in assay [2], 12.8 nM.
For `C=CC(=O)N1CCC(Oc2cnc3[nH]cc(C(=O)NCCC(F)(F)F)c3c2)CC1` [Example 338, 5-[(1-acryloylpiperidin-4-yl)oxy]-N-(3,3,3-trifluoropropyl)-1H-pyrrolo[2,3-b]pyridine-3-carboxamide], in that order: 2780 nM and 31.4 nM.
For `C=CC(=O)N1CCC(Oc2cnc3[nH]cc(C(=O)NC4CCCC(F)(F)C4)c3c2)CC1` (stereo not shown) [Example 339, 5-[(1-acryloylpiperidin-4-yl)oxy]-N-(3,3-difluorocyclohexyl)-1H-pyrrolo[2,3-b]pyridine-3-carboxamide], in that order: 2700 nM and 16.5 nM.
Consider `C=CC(=O)N1CCC(Oc2cnc3[nH]cc(C(=O)NCc4cccc(F)c4)c3c2)CC1` [Example 340, 5-[(1-acryloylpiperidin-4-yl)oxy]-N-(3-fluorobenzyl)-1H-pyrrolo[2,3-b]pyridine-3-carboxamide], for which the 50% inhibitory concentration (IC50) in assay [1] is 3470 nM; in assay [2] it was 30 nM.
Turning to `C=CC(=O)N1CCC(Oc2cnc3[nH]cc(C(=O)NCc4ccccc4)c3c2)CC1` [Example 342, 5-[(1-acryloylpiperidin-4-yl)oxy]-N-benzyl-1H-pyrrolo[2,3-b]pyridine-3-carboxamide], the IC50 in assay [1] was found to be 2630 nM; in assay [2] it was 26.4 nM.
For `C=CC(=O)N1CCC(Oc2cnc3[nH]cc(C(=O)NCC4CC4)c3c2)CC1` [Example 343, 5-[(1-acryloylpiperidin-4-yl)oxy]-N-(cyclopropylmethyl)-1H-pyrrolo[2,3-b]pyridine-3-carboxamide], the half-inhibitory concentration (IC50) in assay [1] came out at 4880 nM; in assay [2], 75.1 nM.
Regarding `C=CC(=O)N1CCC(Oc2cnc3[nH]cc(C(=O)N[C@H]4CC[C@@H](F)C4)c3c2)CC1` [Example 344, 5-[(1-acryloylpiperidin-4-yl)oxy]-N-[(1S,3R)-3-fluorocyclopentyl]-1H-pyrrolo[2,3-b]pyridine-3-carboxamide], the values for the IC50 in assay [1] and in assay [2] were 2540 nM and 26.7 nM, respectively.
On to `C=CC(=O)N1CCC(Oc2cnc3[nH]cc(C(=O)NCC4CCC4)c3c2)CC1` [Example 345, 5-[(1-acryloylpiperidin-4-yl)oxy]-N-(cyclobutylmethyl)-1H-pyrrolo[2,3-b]pyridine-3-carboxamide], for which the IC50 in assay [1] was determined as 4030 nM; in assay [2], 43.7 nM.
For `C=CC(=O)N1CCC(Oc2cnc3[nH]cc(C(=O)NCc4ccccc4F)c3c2)CC1` [Example 346, 5-[(1-acryloylpiperidin-4-yl)oxy]-N-(2-fluorobenzyl)-1H-pyrrolo[2,3-b]pyridine-3-carboxamide], in that order: 4440 nM and 40.9 nM.
For the molecule `C=CC(=O)N1CCC(Oc2cnc3[nH]cc(C(=O)NCCC)c3c2)CC1` [Example 347, 5-[(1-acryloylpiperidin-4-yl)oxy]-N-propyl-1H-pyrrolo[2,3-b]pyridine-3-carboxamide], the IC50 in assay [1] worked out at 3080 nM; in assay [2], 24.2 nM.
As for `C=CC(=O)N1CCC(Oc2cnc3[nH]cc(C(=O)NCCCC)c3c2)CC1` [Example 348, 5-[(1-acryloylpiperidin-4-yl)oxy]-N-butyl-1H-pyrrolo[2,3-b]pyridine-3-carboxamide], the IC50 amounted to 1190 nM in assay [1] and 10.2 nM in assay [2].
For `C=CC(=O)N1CCC(Nc2cnc3[nH]cc(C(=O)NCC)c3c2)CC1` [Example 352, 5-((1-acryloylpiperidin-4-yl)amino)-N-ethyl-1H-pyrrolo[2,3-b]pyridine-3-carboxamide], in that order: 4500 nM and 52.3 nM.
